Measured values from patent US4540700A, “Treatment of diabetic complications with certain spiro-imidazolidine-diones” (Alcon Laboratories, Inc., priority 1984, dated 1985).

Legend:
[1] = test system: nerve conduction velocities of the sciatic nerve; experiment: Nerve conduction study in diabetic rats; type: in vivo, male albino rats; conditions: for nerve conduction velocity as a percent of normal, first inflection / nerve conduction velocity as a percent of normal, first peak / nerve conduction velocity as a percent of normal, second inflection / nerve conduction velocity as a percent of normal, second peak: 15 weeks
Method: (§1) The purpose is to evaluate the efficacy of the racemic 2-fluoro compound (L), an aldose reductase inhibitor, for inhibiting cataractogenesis and nerve conduction deficit in diabetic rats.
(§2) Diabetes was induced in male albino rats by the intravenous injection of 50 mg/kg streptozotocin. The diabetic state was verified by measuring the blood glucose level in each animal before and after injection. […] A fourth group consisted of non-diabetic and otherwise normal rats which remained untreated. Treatments were given once daily by oral […], and continued through the day prior to sacrifice of the animal.
(§3) Each animal was weighed on a weekly basis. Both lenses of each animal were examined by ophthalmoscope periodically and any cataractous changes were graded and noted. At the end of 15 weeks, each animal was anesthetized using pentobarbital and the nerve conduction velocities of the sciatic nerve were measured. After an animal was sacrificed, the sciatic nerve and other tissues and organs were taken, weighed, and frozen for future biochemical analyses.

Human Aldose Reductase = Human Aldose Reductase (Homo sapiens, UniProt P15121); experiment: Human Aldose Reductase Inhibition; type: biochemical; conditions: for activity against human aldose reductase as compared to rat aldose reductase: human vs rat; for more active against human aldose reductase than the Sarges resolved compound: relative to Sarges resolved
Rat Aldose Reductase = Rat Aldose Reductase (Rattus norvegicus, UniProt P07943); experiment: Rat Aldose Reductase Inhibition; type: biochemical
Source text: Biophysical Chemistry, 8 (1978) 81-85; P. F. Kador, L. O. Merola and J. H
Kinoshita Documenta Ophthamologica, 18 (1979) 117.

cataracts in rats = experiment: prevention or retardation of cataracts in rats fed 30% galactose diet (compound in chow); type: in vivo, rat; conditions: for inhibition of cataract development: 4 and 8 Mg/Kg/day; for condition of rat eyes: 4 and 8 Mg/Kg/day in 30% galactose chow, 32 days
Source text: (§4) The compounds were formulated in ground Purina Rodent Laboratory Chow, Number 5001, containing 30% galactose.
Eighty-four rats were divided into the following seven groups (six treated groups having different compound intake levels and an untreated galactose control) having different compound intake levels as shown in Table IV.
(§5) The galactose control group (twelve rats, twenty-four eyes) were fed ground Purina Rodent Laboratory Chow, No. 5001 containing 30% by weight galactose. The six test compound groups (twelve rats, twenty-four eyes per group) were fed the same 30% galactose chow except that the chow was formulated to deliver […] of the indicated test compound (see Table IV).
It is known that young male rats fed a 30% galactose diet (As previously described) will develop lenticular changes within several days which predicatively progress in time irreversibly to cataracts. Aldose reductase inhibitor compounds which are in vivo active will delay or prevent galactose induced cataractogenesis. In this in vivo experiment, the test aldose reductase inhibitor compounds were formulated in the 30% galactose feed to evaluate their in vivo anticataract activity.

[2] = test system: cataractogenesis in diabetic rats; experiment: cataractous changes in streptozotocin diabetic rats; type: in vivo, male albino rats; conditions: 15 weeks
Method: as §1, §2, §3
Cataractous changes were graded on a scale of 0 to 4; 0 denoting a normal looking lens with no changes and 4 denoting opacification involving the whole lens.

[3] = test system: galactitol levels in the lenses; experiment: galactitol levels in lenses of galactose-fed rats at Day 32; type: in vivo, rat; set-up: average galactitol levels in lenses: unit not given here; conditions: for average galactitol levels in lenses: Day 32
Source text: as §4, §5

**Q.** Which “nerve conduction velocity as a percent of normal, first inflection” value ([1]; 8 mg/kg once daily oral) does the source give for O=C1NC(=O)C2(N1)c1ccccc1-c1ccc(F)cc12 (racemic) [Compound L, dl-Spiro(2-fluorofluoren-9,4'-imidazolidine)-2',5'-dione] here?
**A.** Its value is 93.3%.

**Q.** And the “nerve conduction velocity as a percent of normal, first peak” value ([1]; 8 mg/kg once daily oral)?
**A.** Its value is 88.2%.

**Q.** And the “nerve conduction velocity as a percent of normal, second inflection” value ([1]; 8 mg/kg once daily oral)?
**A.** The value was 87.4%.

**Q.** What about the “nerve conduction velocity as a percent of normal, second peak” value ([1]; 8 mg/kg once daily oral) of the same compound?
**A.** Its value is 85.0%.

**Q.** And the “statistical significance of improvement in nerve conduction” value ([1]; 8 mg/kg, by comparison to the untreated diabetic rats)?
**A.** The value was “significant”.

**Q.** And the inhibition at 100 µM (Human Aldose Reductase; 10^-4, human, read-out: In vitro Aldose Reductase Inhibition)?
**A.** Its inhibition at 100 µM is 100%.

**Q.** What about the inhibition at 10 µM (Human Aldose Reductase; 10^-5, human, read-out: In vitro Aldose Reductase Inhibition) of the same compound?
**A.** Its inhibition at 10 µM is 88%.

**Q.** What about the inhibition at 1 µM (Human Aldose Reductase; 10^-6, human, read-out: In vitro Aldose Reductase Inhibition) of the same compound?
**A.** Its inhibition at 1 µM is 81%.

**Q.** What about the inhibition at 0.1 µM (Human Aldose Reductase; 10^-7, human, read-out: In vitro Aldose Reductase Inhibition) of the same compound?
**A.** The inhibition at 0.1 µM was 53%.

**Q.** And the inhibition at 0.01 µM (Human Aldose Reductase; 10^-8, human, read-out: In vitro Aldose Reductase Inhibition)?
**A.** The inhibition at 0.01 µM was 18%.

**Q.** What about the IC50 (Human Aldose Reductase; human) of the same compound?
**A.** The IC50 was 91 nM.

**Q.** And the “activity against human aldose reductase as compared to rat aldose reductase” value (Human Aldose Reductase)?
**A.** Its value is “as active or more active”.

**Q.** And the “more active against human aldose reductase than the Sarges resolved compound” value (Human Aldose Reductase)?
**A.** The value was 7 X.

**Q.** And the IC50 (Rat Aldose Reductase)?
**A.** The IC50 was 150 nM.

**Q.** And the “inhibition of cataract development” value (cataracts in rats)?
**A.** Its value is “inhibit cataract development”.

**Q.** What about the “condition of rat eyes” value (cataracts in rats) of the same compound?
**A.** Its value is “asymptomatic”.

**Q.** And the “prevention of lens opacification in diabetic rats” value ([2]; 8 mg/kg once daily oral)?
**A.** The value was “effective in preventing opacification of the lens”.

**Q.** What about the “average galactitol levels in lenses” value ([3]; 4 Mg/Kg/day) of the same compound?
**A.** The value was 6.274.

**Q.** What about the “average galactitol levels in lenses” value ([3]; 8 Mg/Kg/day) of the same compound?
**A.** The value was 5.074.

**Q.** For O=C1NC(=O)C2(CCOc3ccc(F)cc32)N1 (racemic) [Sarges Racemic, dl-spiro-(6-fluorochroman-4,4'-imidazolidine)-2',5'-dione, reference compound], which “nerve conduction velocity as a percent of normal, first inflection” value ([1]; 16 mg/kg once daily oral) is on record?
**A.** Its value is 88.6%.

**Q.** What about the “nerve conduction velocity as a percent of normal, first peak” value ([1]; 16 mg/kg once daily oral) of the same compound?
**A.** The value was 83.9%.

**Q.** What about the “nerve conduction velocity as a percent of normal, second inflection” value ([1]; 16 mg/kg once daily oral) of the same compound?
**A.** Its value is 82.4%.

**Q.** And the “nerve conduction velocity as a percent of normal, second peak” value ([1]; 16 mg/kg once daily oral)?
**A.** Its value is 79.1%.

**Q.** And the “Times to Cataract, Mean” value (cataracts in rats; 4 Mg/Kg/day)?
**A.** Its value is 15.68 days.

**Q.** What about the “average time to snowflake-like opacities” value (cataracts in rats; 4 Mg/Kg/day) of the same compound?
**A.** Its value is 15.7 days.

**Q.** What about the “condition of rat eyes” value (cataracts in rats) of the same compound?
**A.** The value was “developed snowflake-like opacities”.

**Q.** What about the “time to cataract, days less than at 8 Mg/Kg/day” value (cataracts in rats; 4 vs 8 Mg/Kg/day, average) of the same compound?
**A.** Its value is 4 days.

**Q.** And the “Times to Cataract, Mean” value (cataracts in rats; 8 Mg/Kg/day)?
**A.** Its value is 19.68 days.

**Q.** And the “average time to snowflake-like opacities” value (cataracts in rats; 8 Mg/Kg/day)?
**A.** The value was 19.7 days.

**Q.** And the “prevention of lens opacification in diabetic rats” value ([2]; 16 mg/kg once daily oral, 30 lenses)?
**A.** The value was “all appeared normal”.

**Q.** What about the “average galactitol levels in lenses” value ([3]; 4 Mg/Kg/day) of the same compound?
**A.** Its value is 9.238.

**Q.** And the “average galactitol levels in lenses” value ([3]; 8 Mg/Kg/day)?
**A.** The value was 9.107.

**Q.** What does the source list for O=C1NC(=O)C2(N1)c1cc(F)ccc1-c1ccc(F)cc12 [M, Spiro-[2,7-difluorofluoren-9,4'-imidazolidine]-2',5'-dione]?
**A.** In vitro Aldose Reductase Inhibition (Human Aldose Reductase; 10^-5, human): 81; In vitro Aldose Reductase Inhibition (Human Aldose Reductase; 10^-6, human): 71; In vitro Aldose Reductase Inhibition (Human Aldose Reductase; 10^-7, human): 64; In vitro Aldose Reductase Inhibition (Human Aldose Reductase; 10^-8, human): 35; IC50 (Human Aldose Reductase; human): 52 nM; activity against human aldose reductase as compared to rat aldose reductase (Human Aldose Reductase): as active or more active; more active against human aldose reductase than the Sarges resolved compound (Human Aldose Reductase): 12 X; IC50 (Rat Aldose Reductase): 44 nM; inhibition of cataract development (cataracts in rats): inhibit cataract development; condition of rat eyes (cataracts in rats): asymptomatic; average galactitol levels in lenses ([3]; 4 Mg/Kg/day): 2.560; potency relative to the 2-fluoro compound ([3]; 4 and 8 Mg/Kg/day): more potent; average galactitol levels in lenses ([3]; 8 Mg/Kg/day): 1.399
